Assay results published in article PMC11187260, “Unraveling the interconversion pharmacokinetics and oral bioavailability of the major ginger constituents: [6]-gingerol, [6]-shogaol, and zingerone after single-dose administration in rats” (Frontiers in Pharmacology, 2024).
Read-outs that look alike come from different tables or passages of the source.

Experiments:
[1] = Safety evaluation: physical appearance and blood chemistry after single i.v. or p.o. dose; assay type: in vivo, Female Sprague Dawley rats; conditions: for ALP / ALT / AST / BUN / Creatinine: post-dose (24 h), mean ± SD n=6; for Physical appearance: post-dose
Procedure: (§1) This study is composed of two sections; the first section involves an investigation of the interconversion pharmacokinetics of the pure compounds, and the second focuses on tissue distribution. All rats were transferred to metabolic cages and fasted overnight for at least 10 h. The animals were then randomly divided into four groups (6 rats/group) to receive a single intravenous (i.v.) administration of either 6G, 6S, zingerone, or vehicle via the lateral tail vein at a dosage of 3 mg/kg. After a 7-week washout period, the rats received 30 mg/kg of the same test compounds through a single oral (p.o.) administration. Following each administration, blood samples (300 µL) were collected in heparinized tubes from the lateral tail vein (while rats were under anesthesia with isoflurane) at specified time points: 0.083, 0.25, 0.5, 1, 1.5, 2, 3, 4, 6, 8, and 24 h after administration. An additional 1 mL of blood sample was collected from each rat at pre-dose (0 h) and post-dose (24 h) for clinical laboratory testing and safety evaluation. All heparinized blood samples were initially centrifuged at 5,000 × g, 4 °C, for 10 min. Subsequently, the plasma was carefully transferred to a cryotube as an aliquot sample and then stored at −40 °C until analysis. Urine and feces were collected during the intervals of 0–24 h and 24–48 h post-dosing, and their weights and volumes were documented. All collected urine and feces samples were stored at −40 °C until analysis.
Plasma samples were collected at baseline (T0) and T24 h for the determination of blood chemistry, including levels of blood urea nitrogen (BUN), creatinine, aspartate transaminase (AST), alanine transaminase (ALT), and alkaline phosphatase (ALP). The analyses were conducted by the Exclusive Veterinary Professional Laboratory Center (Bangkok, Thailand). The creatinine level was determined using an enzymatic oxidase assay, while AST and ALT levels were determined using the procedure of the International Federation of Clinical Chemistry (IFCC) without pyridoxal phosphate activation.

[2] = Pharmacokinetics and oral bioavailability after single oral administration (30 mg/kg), plasma LC-MS/MS; assay type: in vivo, Female Sprague Dawley rats; conditions: for bioavailability / AUC(0-inf) / AUC(0-t) / Tmax: plasma, 30 mg/kg; for AUC(0-t): read-out: AUC(0-t); for Tmax: median [IQR]
Procedure: as §1
Plasma samples were processed through protein precipitation. In brief, 50 µL of plasma was mixed with 200 µL of methanol containing 50 ng/mL of IS (dihydrocapsaicin). The mixtures were vortexed and centrifuged at 14,000 × g at 4 °C for 10 min. The supernatant was filtered through a […] PVDF membrane (Chrome Tech, MN, USA) before analysis.
(§2) Investigation of glucuronide conjugations followed a previously published method with some modification ([Wang et al., 2017]; [Songvut et al., 2023]). A 50 μL aliquot of plasma, urine, or feces sample was incubated at 37 °C for a minimum of 30 min with 50 μL of β-glucuronidase (3,000 U/mL) in a sodium phosphate buffer (pH 6.8). For sample extraction, 150 μL of methanol containing 50 μg/L of IS was pipetted into the pre-incubated samples. Subsequently, the mixtures were vortexed for 10 min and then centrifuged at 14,000 × g at 4 °C for 10 min. The supernatants were filtered through a […] PVDF membrane (Chrome Tech, MN, United States) and then analyzed using the validated LC-MS/MS method.
Quantitative analysis was conducted using liquid chromatography-tandem mass spectrometry (LC-MS/MS) with a Nexera X2 LCMS-8060NX instrument (Shimadzu, Japan). The instrument included a CBM-40lite system controller, CTO-40C column oven, SIL-40C XR autosampler, LC-40D XR solvent pump unit, FCV-DGU-403 degasser, and 20AH2 switching valve. The LC-MS/MS system was operated with a binary pump and equipped with a triple quadrupole mass spectrometer.
Pharmacokinetic parameters were assessed using PK Solutions software (version 2.0) with non-compartmental analysis. The AUC was calculated using the Linear-Log Trapezoidal Method. The maximum plasma concentration (Cmax) and time to reach maximum plasma concentration (Tmax) were taken directly from the graph.
(§3) Plasma concentration-time profiles were plotted using GraphPad Prism 9.3.0 (GraphPad Software, USA). The absolute oral bioavailability was calculated as follows: F = (AUC p.o./dose p.o.)/(AUC i.v./dose i.v.). The percentage recovery of each administered compound was calculated as the total amount of the drug found in urine or feces divided by the administered dose. The tissue-to-plasma concentration ratios (K p) were calculated by dividing the concentration in the tissue by the corresponding plasma concentration at the respective sampling time point.

[3] = Percent recovery in urine and feces after intravenous or oral administration; assay type: in vivo, Female Sprague Dawley rats; conditions: for dose excreted: female, Sprague Dawley, rat, % of administered dose
Procedure: as §1
(§4) Urine samples were centrifuged, and 50 µL of urine was extracted with 200 µL of 100% methanol. The mixture was vortexed for 10 min and subsequently centrifuged at 14,000 × g at 4 °C for 10 min. Feces and organs were weighed and homogenized with methanol (50:50% w/v). The supernatants of the extracted urine, feces, and organs were also filtered through a […] PVDF membrane (Chrome Tech, MN, USA) before analysis.
as §2, §3

[4] = Tissue distribution after single oral administration (30 mg/kg); assay type: in vivo; conditions: 1–2 h after oral 30 mg/kg
Procedure: Tissue distribution analysis was carried out after a 7-week washout period following the completion of the pharmacokinetic study. The animals received a single oral administration of either 6G, 6S, zingerone, or vehicle at a dosage of 30 mg/kg. Euthanasia was performed using an overdose of isoflurane (>10%) in an induction chamber, either one or 2 h after oral gavage (3 rats/timepoint), and death was confirmed by exsanguination. Subsequently, the stomach, small intestine, liver, large intestine, kidneys, heart, lung, hippocampus, cortex, spleen, ovaries, and spinal cord were collected. The dissected organs were thoroughly cleaned with a cold normal saline solution and the connective tissue was removed. The organs were then precisely weighed before being stored at −40 °C. All processes during tissue collection were performed on ice.
as §4, §3

[5] = female, Sprague-Dawley, rat, po, plasma analyte after [6]-gingerol p.o. 30 mg/kg, mean ± SD n=6
[6] = female, Sprague-Dawley, rat, po, plasma analyte after zingerone p.o. 30 mg/kg, mean ± SD n=6

COc1cc(CCC(C)=O)ccc1O [zingerone, 4-(4-hydroxy-3-methoxyphenyl)-2-butanone]
ALP ([1]; i.v. 3 mg/kg): 48.50 ± 14.00 U/L | ALT ([1]; i.v. 3 mg/kg): 28.50 ± 5.82 U/L | AST ([1]; i.v. 3 mg/kg): 64.17 ± 11.05 U/L | BUN ([1]; i.v. 3 mg/kg): 14.17 ± 1.33 mg/dL | Creatinine ([1]; i.v. 3 mg/kg): 0.70 ± 0.03 mg/dL | ALP ([1]; p.o. 30 mg/kg): 35.83 ± 8.38 U/L | ALT ([1]; p.o. 30 mg/kg): 19.33 ± 2.50 U/L | AST ([1]; p.o. 30 mg/kg): 53.83 ± 6.88 U/L | BUN ([1]; p.o. 30 mg/kg): 9.83 ± 1.47 mg/dL | Creatinine ([1]; p.o. 30 mg/kg): 0.75 ± 0.02 mg/dL | Physical appearance ([1]; i.v. 3 mg/kg): Normal | Physical appearance ([1]; p.o. 30 mg/kg): Normal | Tolerability ([1]; single i.v. 3 mg/kg or p.o. 30 mg/kg): exhibited tolerance | plasma detection of zingerone after 6S administration ([2]; after 6S administration (route not given)): not detected | bioavailability ([2]; female, Sprague-Dawley, rat, po, p.o. 30 mg/kg vs i.v. 3 mg/kg of the pure compound, mean ± SD n=6, read-out: %Oral bioavailability): 0.75 ± 0.52% | bioavailability ([2]; female, Sprague-Dawley, rat, po, p.o. 30 mg/kg vs i.v. 3 mg/kg of the pure compound, range among rats, read-out: %Oral bioavailability (range)): 0.32 to 1.6% | bioavailability ([2]; female, Sprague-Dawley, rat, po, p.o. 30 mg/kg vs i.v. 3 mg/kg, pure compounds, read-out: absolute oral bioavailability (upper bound)): < 2% | AUC(0-inf) [2, 5]: 28 ± 7.4 ng·h/mL | AUC(0-t) [2, 5]: 28 ± 7.4 ng·h/mL | Tmax ([2]; female, Sprague-Dawley, rat, po, plasma analyte after [6]-gingerol p.o. 30 mg/kg): 15 min | AUC(0-inf) [2, 6]: 950 ± 373 ng·h/mL | AUC(0-t) [2, 6]: 944 ± 348 ng·h/mL | Tmax ([2]; female, Sprague-Dawley, rat, po, plasma analyte after zingerone p.o. 30 mg/kg): 4.8 min | Cmax [2, 6]: 1870 ± 604 ng/mL | presence of parent compound in plasma ([2]; following oral administration): up to 4 h | time to detectable plasma levels ([2]; oral administration of pure compound): ≤ 5 min | time to reach peak plasma concentration (Cmax) ([2]; parent compound after oral administration 30 mg/kg): 5 to 45 min | parent compound recovered in urine ([3]; during 24–48 h): less than 1% | dose excreted ([3]; feces, iv, 3 mg/kg, intravenous administration 3 mg/kg of parent compound, read-out: % Recovery excretion, feces T 0–24 h): 0.049 ± 0.027% | dose excreted ([3]; feces, iv, 3 mg/kg, intravenous administration 3 mg/kg of parent compound, read-out: % Recovery excretion, feces T 24–48 h): 0.002 ± 0.001% | dose excreted ([3]; feces, po, 30 mg/kg, oral administration 30 mg/kg of parent compound, read-out: % Recovery excretion, feces T 0–24 h): 0.004 ± 0.003% | dose excreted ([3]; feces, po, 30 mg/kg, oral administration 30 mg/kg of parent compound, read-out: % Recovery excretion, feces T 24–48 h): 0.057 ± 0.017% | dose excreted ([3]; urine, iv, 3 mg/kg, intravenous administration 3 mg/kg of parent compound, read-out: % Recovery excretion, urine T 0–24 h): 0.184 ± 0.286% | dose excreted ([3]; urine, iv, 3 mg/kg, intravenous administration 3 mg/kg of parent compound, read-out: % Recovery excretion, urine T 24–48 h): < 0.001% | dose excreted ([3]; urine, po, 30 mg/kg, oral administration 30 mg/kg of parent compound, read-out: % Recovery excretion, urine T 0–24 h): 0.049 ± 0.032% | dose excreted ([3]; urine, po, 30 mg/kg, oral administration 30 mg/kg of parent compound, read-out: % Recovery excretion, urine T 24–48 h): < 0.001% | unchanged form in fecal excretion ([3]; within 48 h after intravenous or oral administration): < 0.1% | distribution to brain regions (hippocampus and cortex) [4]: higher concentrations | tissue-to-plasma ratios (rank among compounds) [4]: highest
